Among the data in BindingDB's records for doi:10.1016/j.bmcl.2004.02.040 (Ewha Womans University, 2004) are IC50 values, retold here.

The structures appear in SMILES notation.

The target of the assay is cGMP-specific 3',5'-cyclic phosphodiesterase PDE5 (Oryctolagus cuniculus). The experiment in a line: Inhibition of phosphodiesterase 5 of rabbit platelets.

For `CCCOc1ccc(S(=O)(=O)N2CCC(CCP(=O)(O)OCC)CC2)cc1-c1nc2c(CCC)nn(C)c2c(=O)[nH]1` [(2-{1-[3-(1-Methyl-7-oxo-3-propyl-6,7-dihydro-1H-pyrazolo[4,3-d]pyrimidin-5-yl)-4-propoxy-benzenesulfonyl]-piperidin-4-yl}-ethyl)-phosphonic acid monoethyl ester], the IC50 turned out to be 0.29 nM.

As usually defined, the IC50 is the concentration needed to halve the response being measured. A high value points to a need for much substance.
